Assay results as given in US12156859B2, “Methods of and compositions for treating obesity, obesity-related diseases or cancers using a N6-methyllysine/l-lysine mixture” (Tainnovation Inc, priority 2021, dated 2024).
Entries after “also recorded” stand apart in the source; their conditions may differ.

Key:
DUSP6 / cold microbiota = test: 16S rRNA microbiota analysis of BCI-CR versus Vehicle-CR mice (cold-room temperature transition); format: in vivo; conditions: during the cold-RT transition, BCI-CR vs Vehicle-CR, 16S rRNA sequencing
Excerpt: FIG. 1B illustrates the cold induced gut bacteria that is regulated by DUSP6 inhibition by injecting DUSP6 inhibitor, (E/Z)-BCI hydrochloride, into the mice underwent cold-room temperature (CR) transition.
To search the potential Nε-Methyl-L-lysine producers in cold microbiota, we performed the microbiota analysis on 16S rRNA sequencing data of BCI-CR and Vehicle-CR microbiota.

[1] = tested on: CDAHFD-induced NASH and liver fibrosis; test: NASH and liver fibrosis test (CDAHFD-fed mice); format: in vivo, male C57BL/6J mice
Method: (§1) Tissues were fixed in 4% neutral-buffered formalin (Sigma), paraffin-embedded, sectioned, and stained with hematoxylin and eosin (H&E) or subjected to immunohistochemistry analysis. For adipose tissue, the 5 μm FFPE sections of pWAT and iWAT were deparaffinated and stained with H&E. The mean adipocyte area and adipocyte size distribution were determined by using Adiposoft software. For quantifying lipid droplets in liver tissues, the 5 μm FFPE liver sections were deparaffinated and stained with H&E. The mean lipid droplets area was determined by using Image J software.
Groups of 6-week-old male C57BL/6J mice were fed in choline-deficient, L-amino acid-defined, high-fat diet (CDAHFD; #A06071302) purchased from Research Diets (New Brunswick, NJ, USA) or chow diet for 4 weeks. After two weeks of CDAHFD treatment, mice were orally administrated L-lysine (150 mM), Nε-Methyl-L-lysine (150 mM) (100 ul/mouse/Day) or vehicle (water; 100 ul/mouse/Day) for 14 days with continuing CDAHFD treatment. Bodyweight was measured weekly. After sacrifice, the serum of mice was collected and stored at −80° ° C. The serum levels of aspartate aminotransferase (AST) and alanine aminotransferase (ALT) were measured with biochemistry slides for a chemistry analyzer (FUJI DRI-CHEM 4000i, Fujifilm Corporation, Japan). For hepatic fibrosis staining, the 5 μm FFPE liver sections were deparaffinated and stained with a Trichrome staining kit according to the manufacturer's instructions.
8-weeks old male C57BL/6 mice are fed with a choline-deficient, L-amino acid-define, high-fat diet (CDAHFD) (Research Diet, Inc. […]) for 4 weeks to induce NASH and liver fibrosis. During the third and fourth week of CDAHFD treatment, it is orally administered Nε-Methyl-L-lysine (100 μg Nε-Methyl-L-lysine/g body weight/per day) into mice for fourteen days. […] Data are presented as mean±SEM. Kruskal-Wallis test is used in FIG. 4 (a and b) Mann-Whitney t-tests are used in FIG. 4 (c and d) to indicate significant differences between groups. *P<0.05. *P<0.005. *P<0.0005. *P<0.00005.

[2] = tested on: perigonadal white adipose tissue (pWAT) and inguinal white adipose tissue (iWAT); test: Adipose tissues reducing experiment: 14-day oral administration to chow diet-fed mice, body weight and pWAT/iWAT mass; format: in vivo, male C57BL/6J mice; conditions: chow diet-fed male mice, fourteen days
Method: To test the browning-activating and WAT-reducing abilities of Nε-Methyl-L-lysine, 8-week-old male C57BL/6J mice were orally administrated of L-lysine (150 mM), Nε-Methyl-L-lysine (150 mM) (100 ul/mouse/Day) or vehicle (water; 100 ul/mouse/Day) for 14 days.
(§2) 14 days after treatment, the L-lysine (150 mM), Nε-Methyl-L-lysine (150 mM) (100 ul/mouse/Day) or vehicle (water; 100 ul/mouse/Day) treated mice were sacrificed and the perigonadal white adipose tissue (pWAT) and inguinal white adipose tissue (iWAT) were collected and weighted for measuring the reducing effects of L-lysine, Nε-Methyl-L-lysine and vehicle. To test the browning-activating abilities of L-lysine, Nε-Methyl-L-lysine and vehicle control in pWAT and iWAT of treated mice, total RNA of WAT was extracted by using RNeasy Lipid Tissue kits. The concentration and quality of RNA were measured by NanoDrop spectrophotometer. For qRT-PCR analysis of browning marker gene Ucp1 and beta-oxidation gene Cpt1b, complementary DNA was obtained by using M-MLV Reverse Transcriptase with oligo-dT primers. qRT-PCR was performed with SYBR-green master on a MyGo Pro PCR system.
FIG. 6 illustrates a method of using Nε-Methyl-L-lysine to reduce the total mass of subcutaneous and perigonadal white adipose tissues without reducing total body weight. It is orally administered Nε-Methyl-L-lysine (100 μg Nε-Methyl-L-lysine/g body weight/per day, body weights before treatment, body weights 7 days after treatment, body weights 14 days after treatment) into eight weeks old male C57/BL6 mice for fourteen days. […] Data are presented as mean±SEM and significance is calculated by one-way ANOVA followed by Tukey's multiple comparison test. *P<0.05. **P<0.01.

gut microbiota = test: Gut microbiota control experiment (14-day oral administration); format: in vivo, male C57/BL6 mice
Method: 14 days after treatment, the fecal pellets of L-lysine (150 mM), Nε-Methyl-L-lysine (150 mM) (100 ul/mouse/Day) or vehicle (water; 100 ul/mouse/Day) treated mice were collected for DNA extraction. PCR amplification was performed on extracted DNA for 16s rDNA amplicons by using the primers targeting the V3-V4 region (primer set: 341F-805R). 16s rRNA amplicons were sequenced on an Illumina Miseq platform and generated 300 bp paired-end reads. Raw data were obtained with barcodes sequences cleaned up. The sequencing data was analyzed using the QIIME 2 platform (version: 2020.8).
(§3) It is orally administered Nε-Methyl-L-lysine (100 μg Nε-Methyl-L-lysine/g body weight/per day) into eight weeks old male C57/BL6 mice for fourteen days. Fourteen days after treatment, perigonadal adipose tissues of vehicle (H2O) treated mice and Nε-Methyl-L-lysine treated mice were collected for qPCR analyses. […] Data are presented as mean±SEM. Mann-Whitney t-tests are used to indicate significant differences between groups. *P<0.05.

[3] = tested on: differentiated 3T3-L1 adipocytes; test: Cell differentiation experiment: Oil Red-O lipid staining and Ucp1 qPCR; format: cell-based; conditions: 150 μM
Method: The differentiation of 3T3-L1 cells was performed by using 3T3-L1 DIFFERENTIATION KIT (DIF001, Merck). After differentiation, cells were maintained in a complete medium containing […] Nε-Methyl-L-lysine and vehicle control for 7 days before the harvest. After treatments, cells were subjected to RNA extraction and qPCR analysis of Ucp1 and Cpt1b mRNA expression. For quantifying the lipid accumulation in cells, cells were fixed with in 4% neutral-buffered formalin and stained with Oil Red-O reagent.
FIG. 5 illustrates a method of using Nε-Methyl-L-lysine to inhibit lipid storage and promote adipose browning in differentiated 3T3-L1 adipocytes in accordance with some embodiments. 3T3-L1 cells (SP-L1-F) are purchased from a commercial available source. It is maintained and differentiated 3T3-L1 preadipocytes. After differentiation, differentiated 3T3-L1 adipocytes are treated by post-differentiation medium containing vehicle (H2O) or Nε-Methyl-L-lysine (150 μM). […] Data are collected from three independent experiments (FIGS. 5a and 5b) and presented as mean±SEM. Mann-Whitney t-tests are used to indicate significant differences between groups. *P<0.05. **P<0.01. ****P<0.0001.

[4] = tested on: adipocytes of pWAT and iWAT; test: Histological examination of pWAT and iWAT (H&E, Adiposoft adipocyte area and size distribution); format: in vivo, male C57BL/6J mice; conditions: vs vehicle
Method: as §1

Ucp1 and Cpt1b = test: qRT-PCR of browning marker gene Ucp1 and beta-oxidation gene Cpt1b in white adipose tissue of treated mice; format: in vivo, male C57BL/6J mice; conditions: perigonadal adipose tissue, 14 days after oral treatment, qPCR, vs vehicle
Method: as §2
as §3, with “Beiging and β-oxidation are two major fat-burning mechanism of white adipose tissues controlled by the expression of Ucp-1 and CPT-1 gene respectively. […] It” for “It”, “14” for “Fourteen”, “are” for “were”

[5] = CDAHFD 4 weeks, oral treatment during third and fourth week
[6] = 100 μg/g body weight/per day oral, fourteen days, vs vehicle

## Cl.O=C1/C(=C/c2ccccc2)C(NC2CCCCC2)c2ccccc21 (mixture of isomers) [(E/Z)-BCI hydrochloride]
DUSP6 / cold microbiota
  abundance of Lachospiraceae bacterium, Marvinbryantia uncultured bacterium, Peptococcaceae uncultured bacterium, Bifidobacterium pseudolongum and Gordonnibacter uncultured bacterium: significantly regulates the abundance

## NCCCC[C@H](N)C(=O)O [L-lysine]
[1]; [5]
  serum ALT level, CDAHFD compared with chow-diet fed mice: significantly increased
  serum AST level, CDAHFD compared with chow-diet fed mice: significantly increased
[2]
  total mass of iWAT (subcutaneous white adipose tissues): did not show significant effects
  total mass of pWAT (perigonadal white adipose tissues): did not show significant effects

## CNCCCC[C@H](N)C(=O)O [Nε-Methyl-L-lysine]
Gut microbiota; [6]
  number of bacteria classified in the Actinobacteria phylum in gut: capable of increasing the number
  number of bacteria classified in the Bacilli class in gut: capable of increasing the number
  number of bacteria classified in the Bacteroidia phylum in gut: capable of increasing the number
  number of bacteria classified in the Bifidobacterium genus in gut: capable of increasing the number
  number of bacteria classified in the Coriobacteriia class in gut: capable of increasing the number
  number of bacteria classified in the Lactobacillus genus in gut: capable of increasing the number
  number of bacteria classified in the Saccharimonadia class in gut: capable of increasing the number
  number of bacteria classified in the Verrucomicrobiota phylum in gut: capable of increasing the number
  total bacterial load: capable of increasing the total bacterial load
Gut microbiota; FIG. 8j
  number or relative percentage of Akkernmansia muciniphilla in gut: increase the number or relative percentage
[1]; [5]
  serum ALT level, CDAHFD compared with chow-diet fed mice: significantly increased
[1]; mice fed with a CDAHFD
  reducing AST/ALT ratio, compared with lysine: better effect than lysine
  reducing serum AST level, compared with lysine: better effect than lysine
[1]; mice fed with a CDAHFD, oral 14 days
  liver lipid droplets: promising effect on reducing
[1]; mice fed with a CDAHFD, oral 14 days, trichrome stain
  liver fibrosis: promising effect on reducing
[3]; vs vehicle (H2O)
  lipid storage (oil-red O staining): significantly reduce lipid storage
[3]; vs vehicle-treated cells
  browning marker Ucp-1 expression: significantly induce
[2]
  sensitivity of visceral pWAT versus subcutaneous iWAT to the substance: higher sensitivity
  total mass of iWAT (subcutaneous white adipose tissues): dramatically reduced
  total mass of pWAT (perigonadal white adipose tissues): dramatically reduced
[2]; 150 mM 100 ul/mouse/Day (100 μg/g body weight/per day), vs vehicle or L-lysine
  body weight: did not significantly change the body weight; also recorded: did not change the mice body weights
[4]; Adiposoft software
  mean adipocyte area and distribution of adipocyte size of pWAT and iWAT: significantly reduced
[4]; H&E sections
  adipocyte size in iWAT (histological examination): significantly reduced adipocyte size
  adipocyte size in pWAT (histological examination): significantly reduced adipocyte size
Ucp1 and Cpt1b
  expression of Cpt1b (β-oxidation marker gene) in pWAT: significantly induced the expression
  expression of Ucp-1 (browning marker gene) in pWAT: significantly induced the expression
Ucp1 and Cpt1b; listed as Nε-Methyl−1-lysine
  expression of Cpt1b (β-oxidation marker gene) in pWAT: enhanced the expression
  expression of Ucp-1 (browning marker gene) in pWAT: enhanced the expression
